Measured values taken from ChEMBL document CHEMBL1139487, “Discovery of corticotropin releasing factor 2 receptor selective sauvagine analogues for treatment of skeletal muscle atrophy” (J Med Chem, 2005).

Assays:
[1] = molecular target: Corticotropin-releasing factor receptor 2 (Mus musculus, UniProt Q60748); test: In vitro effective concentration for mouse corticotropin releasing factor 2 receptor
Mus musculus = organism: Mus musculus; test: Selectivity ratio of EC50s for mouse corticotropin releasing factor receptors 1 and 2
[2] = molecular target: T1, Corticotropin-releasing factor receptor 1 (Mus musculus, UniProt P35347); test: In vitro effective concentration for mouse corticotropin releasing factor 1 receptor
T1 sequence (P35347 whole entry): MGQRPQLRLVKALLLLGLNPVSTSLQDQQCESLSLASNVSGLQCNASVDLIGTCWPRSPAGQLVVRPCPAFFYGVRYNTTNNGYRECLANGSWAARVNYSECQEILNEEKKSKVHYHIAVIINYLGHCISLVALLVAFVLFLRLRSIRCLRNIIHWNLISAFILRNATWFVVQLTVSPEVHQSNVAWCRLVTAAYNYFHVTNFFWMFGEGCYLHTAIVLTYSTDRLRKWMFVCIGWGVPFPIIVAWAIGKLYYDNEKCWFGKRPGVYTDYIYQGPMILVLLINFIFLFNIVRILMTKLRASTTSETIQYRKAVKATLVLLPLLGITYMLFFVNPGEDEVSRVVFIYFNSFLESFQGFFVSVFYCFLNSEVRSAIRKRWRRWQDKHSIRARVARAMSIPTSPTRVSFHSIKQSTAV

[3] = molecular target: Corticotropin-releasing factor receptor 2 (Mus musculus) (UniProt Q60748); test: In vitro agonistic activity against mouse corticotropin releasing factor 2 receptor; format: functional
Sequence of Corticotropin-releasing factor receptor 2 (Mus musculus) (Q60748 whole entry): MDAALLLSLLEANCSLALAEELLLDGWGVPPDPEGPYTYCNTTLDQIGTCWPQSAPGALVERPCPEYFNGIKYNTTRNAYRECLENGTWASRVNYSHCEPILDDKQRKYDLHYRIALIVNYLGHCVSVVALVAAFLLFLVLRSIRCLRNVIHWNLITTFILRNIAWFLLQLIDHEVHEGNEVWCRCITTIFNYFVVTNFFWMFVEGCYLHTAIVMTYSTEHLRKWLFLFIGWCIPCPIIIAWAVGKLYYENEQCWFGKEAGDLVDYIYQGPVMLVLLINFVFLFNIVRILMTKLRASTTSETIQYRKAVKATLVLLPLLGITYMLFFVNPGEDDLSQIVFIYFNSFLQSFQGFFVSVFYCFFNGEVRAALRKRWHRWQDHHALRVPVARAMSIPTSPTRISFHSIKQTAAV

[4] = molecular target: T2, Corticotropin-releasing factor receptor 1 (Mus musculus) (UniProt P35347); test: In vitro agonistic activity against mouse corticotropin releasing factor 1 receptor; format: functional
T2 sequence (whole entry): T1 sequence (P35347 whole entry)

Sequence of Corticotropin-releasing factor receptor 2 (Q60748 whole entry): as above

SMILES | EC50 [1] [nM] | Selectivity (Mus musculus) | EC50 [2] [nM] | Emax [3] [%] | Emax [4] [%]
CC[C@H](C)[C@H](NC(=O)[C@@H](NC(=O)[C@H](CC(=O)O)NC(=O)[C@H](CC(C)C)NC(=O)[C@H](CC(C)C)NC(=O)[C@H](CC(C)C)NC(=O)[C@H](CCCN=C(N)N)NC(=O)[C@H](CC(N)=O)NC(=O)[C@H](CC(N)=O)NC(=O)[C@H](C)NC(=O)[C@H](C)NC(=O)[C@H](CCC(N)=O)NC(=O)[C@H](CCC(N)=O)NC(=O)[C@H](CCCCN)NC(=O)[C@H](CCC(=O)O)NC(=O)[C@H](CCCCN)NC(=O)[C@H](CCC(=O)O)NC(=O)[C@H](CCC(N)=O)NC(=O)[C@H](CCCCN)NC(=O)[C@H](CCC(=O)O)NC(=O)[C@@H](NC(=O)[C@H](CCC(=O)O)NC(=O)[C@@H](NC(=O)[C@H](CCSC)NC(=O)[C@H](CCCCN)NC(=O)[C@H](CCCN=C(N)N)NC(=O)[C@H](CC(C)C)NC(=O)[C@H](CC(C)C)NC(=O)[C@H](CC(C)C)NC(=O)[C@H](CCC(N)=O)NC(=O)[C@@H]1CCCN1C(=O)[C@H](CC(C)C)NC(=O)[C@H](CC(=O)O)NC(=O)[C@@H](NC(=O)[C@H](CO)NC(=O)[C@@H](NC(=O)[C@@H]1CCCN1C(=O)[C@@H]1CCCN1C(=O)CNC(=O)[C@@H]1CCC(=O)N1)[C@@H](C)CC)[C@@H](C)CC)[C@@H](C)CC)[C@@H](C)CC)[C@@H](C)O)C(=O)O | 27.6 | 16 | 447 | 93 | 96
CC[C@H](C)[C@H](NC(=O)[C@@H](NC(=O)[C@H](CC(=O)O)NC(=O)[C@H](CC(C)C)NC(=O)[C@H](CC(C)C)NC(=O)[C@H](CC(C)C)NC(=O)[C@H](CCCN=C(N)N)NC(=O)[C@H](CC(N)=O)NC(=O)[C@H](CC(N)=O)NC(=O)[C@H](C)NC(=O)[C@H](C)NC(=O)[C@H](CCC(N)=O)NC(=O)[C@H](CCC(N)=O)NC(=O)[C@H](CCCCN)NC(=O)[C@H](CCC(=O)O)NC(=O)[C@H](CCCCN)NC(=O)[C@H](CCC(=O)O)NC(=O)[C@H](CCC(N)=O)NC(=O)[C@H](CCCCN)NC(=O)[C@H](CCC(=O)O)NC(=O)[C@@H](NC(=O)[C@H](CCC(=O)O)NC(=O)[C@@H](NC(=O)[C@H](CCSC)NC(=O)[C@H](CCCCN)NC(=O)[C@H](CCCN=C(N)N)NC(=O)[C@H](CC(C)C)NC(=O)[C@H](CC(C)C)NC(=O)[C@H](Cc1ccc(O)cc1)NC(=O)[C@H](CCC(N)=O)NC(=O)[C@@H]1CCCN1C(=O)[C@H](CC(C)C)NC(=O)[C@H](CC(=O)O)NC(=O)[C@@H](NC(=O)[C@H](CO)NC(=O)[C@@H](NC(=O)[C@@H]1CCCN1C(=O)[C@@H]1CCCN1C(=O)CNC(=O)[C@@H]1CCC(=O)N1)[C@@H](C)CC)[C@@H](C)CC)[C@@H](C)CC)[C@@H](C)CC)[C@@H](C)O)C(=O)O |  | 30 |  | 96 | 100
CC[C@H](C)[C@H](NC(=O)[C@@H](NC(=O)[C@H](CC(=O)O)NC(=O)[C@H](CC(C)C)NC(=O)[C@H](CC(C)C)NC(=O)[C@H](CC(C)C)NC(=O)[C@H](CCCN=C(N)N)NC(=O)[C@H](CC(N)=O)NC(=O)[C@H](CC(N)=O)NC(=O)[C@H](C)NC(=O)[C@H](C)NC(=O)[C@H](CCC(N)=O)NC(=O)[C@H](CCC(N)=O)NC(=O)[C@H](CCCCN)NC(=O)[C@H](CCC(=O)O)NC(=O)[C@H](CCCCN)NC(=O)[C@H](CCC(=O)O)NC(=O)[C@H](CCC(N)=O)NC(=O)[C@H](CCCCN)NC(=O)[C@H](CCC(=O)O)NC(=O)[C@@H](NC(=O)[C@H](CCC(=O)O)NC(=O)[C@@H](NC(=O)[C@H](CCSC)NC(=O)[C@H](CCCCN)NC(=O)[C@H](CCCN=C(N)N)NC(=O)[C@H](CC(C)C)NC(=O)[C@H](CC(C)C)NC(=O)[C@H](CCC(=O)O)NC(=O)[C@H](CC(C)C)NC(=O)[C@@H]1CCCN1C(=O)[C@H](CC(C)C)NC(=O)[C@H](CC(=O)O)NC(=O)[C@@H](NC(=O)[C@H](CO)NC(=O)[C@@H](NC(=O)[C@@H]1CCCN1C(=O)[C@@H]1CCCN1C(=O)CNC(=O)[C@@H]1CCC(=O)N1)[C@@H](C)CC)[C@@H](C)CC)[C@@H](C)CC)[C@@H](C)CC)[C@@H](C)O)C(=O)O |  | 9 |  | 95 | 99

Continued by falling EC50 [1], values first:

EC50 [1] [nM] | Selectivity (Mus musculus) | EC50 [2] [nM] | Emax [3] [%] | Emax [4] [%] | SMILES
25.1 | 16 | 408 | 100 | 100 | CC[C@H](C)[C@H](NC(=O)[C@@H](NC(=O)[C@H](CC(=O)O)NC(=O)[C@H](CC(C)C)NC(=O)[C@H](CC(C)C)NC(=O)[C@H](CC(C)C)NC(=O)[C@H](CCCN=C(N)N)NC(=O)[C@H](CC(N)=O)NC(=O)[C@H](CC(N)=O)NC(=O)[C@H](C)NC(=O)[C@H](C)NC(=O)[C@H](CCC(N)=O)NC(=O)[C@H](CCC(N)=O)NC(=O)[C@H](CCCCN)NC(=O)[C@H](CCC(=O)O)NC(=O)[C@H](CCCCN)NC(=O)[C@H](CCC(=O)O)NC(=O)[C@H](CCC(N)=O)NC(=O)[C@H](CCCCN)NC(=O)[C@H](CCC(=O)O)NC(=O)[C@@H](NC(=O)[C@H](CCC(=O)O)NC(=O)[C@@H](NC(=O)[C@H](CCSC)NC(=O)[C@H](CCCCN)NC(=O)[C@H](CCCN=C(N)N)NC(=O)[C@H](CC(C)C)NC(=O)[C@H](CC(C)C)NC(=O)[C@H](Cc1c[nH]c2ccccc12)NC(=O)[C@H](Cc1c[nH]cn1)NC(=O)[C@@H]1CCCN1C(=O)[C@H](CC(C)C)NC(=O)[C@H](CC(=O)O)NC(=O)[C@@H](NC(=O)[C@H](CO)NC(=O)[C@@H](NC(=O)[C@@H]1CCCN1C(=O)[C@@H]1CCCN1C(=O)CNC(=O)[C@@H]1CCC(=O)N1)[C@@H](C)CC)[C@@H](C)CC)[C@@H](C)CC)[C@@H](C)CC)[C@@H](C)O)C(=O)O
21.7 | > 46 | > 1000 | 99 | 78 | CC[C@H](C)[C@H](NC(=O)[C@@H](NC(=O)[C@H](CC(=O)O)NC(=O)[C@H](CC(C)C)NC(=O)[C@H](CC(C)C)NC(=O)[C@H](CC(C)C)NC(=O)[C@H](CCCN=C(N)N)NC(=O)[C@H](CC(N)=O)NC(=O)[C@H](CC(N)=O)NC(=O)[C@H](C)NC(=O)[C@H](C)NC(=O)[C@H](CCC(N)=O)NC(=O)[C@H](CCC(N)=O)NC(=O)[C@H](CCCCN)NC(=O)[C@H](CCC(=O)O)NC(=O)[C@H](CCCCN)NC(=O)[C@H](CCC(=O)O)NC(=O)[C@H](CCC(N)=O)NC(=O)[C@H](CCCCN)NC(=O)[C@H](CCC(=O)O)NC(=O)[C@@H](NC(=O)[C@H](CCC(=O)O)NC(=O)[C@@H](NC(=O)[C@H](CCSC)NC(=O)[C@H](CCCCN)NC(=O)[C@H](CCCN=C(N)N)NC(=O)[C@H](CC(C)C)NC(=O)[C@H](CC(C)C)NC(=O)[C@H](Cc1c[nH]c2ccccc12)NC(=O)[C@H](CCC(N)=O)NC(=O)[C@@H]1CCCN1C(=O)[C@H](CC(C)C)NC(=O)[C@H](CC(=O)O)NC(=O)[C@@H](NC(=O)[C@H](CO)NC(=O)[C@@H](NC(=O)[C@@H]1CCCN1C(=O)[C@@H]1CCCN1C(=O)CNC(=O)[C@@H]1CCC(=O)N1)[C@@H](C)CC)[C@@H](C)CC)[C@@H](C)CC)[C@@H](C)CC)[C@@H](C)O)C(=O)O
9.4 | 41 | 384 | 100 | 95 | CC[C@H](C)[C@H](NC(=O)[C@@H](NC(=O)[C@H](CC(=O)O)NC(=O)[C@H](CC(C)C)NC(=O)[C@H](CC(C)C)NC(=O)[C@H](CC(C)C)NC(=O)[C@H](CCCN=C(N)N)NC(=O)[C@H](CC(N)=O)NC(=O)[C@H](CC(N)=O)NC(=O)[C@H](C)NC(=O)[C@H](C)NC(=O)[C@H](CCC(N)=O)NC(=O)[C@H](CCC(N)=O)NC(=O)[C@H](CCCCN)NC(=O)[C@H](CCC(=O)O)NC(=O)[C@H](CCCCN)NC(=O)[C@H](CCC(=O)O)NC(=O)[C@H](CCC(N)=O)NC(=O)[C@H](CCCCN)NC(=O)[C@H](CCC(=O)O)NC(=O)[C@@H](NC(=O)[C@H](CCC(=O)O)NC(=O)[C@@H](NC(=O)[C@H](CCSC)NC(=O)[C@H](CCCCN)NC(=O)[C@H](CCCN=C(N)N)NC(=O)[C@H](CC(C)C)NC(=O)[C@H](CC(C)C)NC(=O)[C@H](Cc1ccccc1)NC(=O)[C@H](C)NC(=O)[C@@H]1CCCN1C(=O)[C@H](CC(C)C)NC(=O)[C@H](CC(=O)O)NC(=O)[C@@H](NC(=O)[C@H](CO)NC(=O)[C@@H](NC(=O)[C@@H]1CCCN1C(=O)[C@@H]1CCCN1C(=O)CNC(=O)[C@@H]1CCC(=O)N1)[C@@H](C)CC)[C@@H](C)CC)[C@@H](C)CC)[C@@H](C)CC)[C@@H](C)O)C(=O)O
3 | 16 | 48.1 | 92 | 81 | CC[C@H](C)[C@H](NC(=O)[C@@H](NC(=O)[C@H](CC(=O)O)NC(=O)[C@H](CC(C)C)NC(=O)[C@H](CC(C)C)NC(=O)[C@H](CC(C)C)NC(=O)[C@H](CCCN=C(N)N)NC(=O)[C@H](CC(N)=O)NC(=O)[C@H](CC(N)=O)NC(=O)[C@H](C)NC(=O)[C@H](C)NC(=O)[C@H](CCC(N)=O)NC(=O)[C@H](CCC(N)=O)NC(=O)[C@H](CCCCN)NC(=O)[C@H](CCC(=O)O)NC(=O)[C@H](CCCCN)NC(=O)[C@H](CCC(=O)O)NC(=O)[C@H](CCC(N)=O)NC(=O)[C@H](CCCCN)NC(=O)[C@H](CCC(=O)O)NC(=O)[C@@H](NC(=O)[C@H](CCC(=O)O)NC(=O)[C@@H](NC(=O)[C@H](CCSC)NC(=O)[C@H](CCCCN)NC(=O)[C@H](CCCN=C(N)N)NC(=O)[C@H](CC(C)C)NC(=O)[C@H](CC(C)C)NC(=O)[C@H](Cc1ccccc1)NC(=O)[C@H](Cc1ccccc1)NC(=O)[C@@H]1CCCN1C(=O)[C@H](CC(C)C)NC(=O)[C@H](CC(=O)O)NC(=O)[C@@H](NC(=O)[C@H](CO)NC(=O)[C@@H](NC(=O)[C@@H]1CCCN1C(=O)[C@@H]1CCCN1C(=O)CNC(=O)[C@@H]1CCC(=O)N1)[C@@H](C)CC)[C@@H](C)CC)[C@@H](C)CC)[C@@H](C)CC)[C@@H](C)O)C(=O)O
